Consider one molecule from patent US9738902B2, “Modified PYR/PYL receptors activated by ligands” (priority 2013, dated 2017).

The subject of experiment [1] is MDP1 and MDP2 genotypes (35S::PYR1^MANDI). The experiment can be described thus: survival after water deprivation and re-watering. Type of experiment: in vivo, Arabidopsis. Particulars: 1 μM mandipropamid, 11 days water deprivation. The method, then: Examples 6 and 8 disclosed that mandipropamid treatments of PYR1^MANDI transgenic plants are sufficient to close guard cells (as indicated by thermal imaging) and confer drought tolerance. To investigate these responses further we performed three additional experiments using wild type Columbia, PYR1-OX and the MDP1 and MDP2 genotypes. Each experiment was conducted independently of the other at different times over the course of 8 months. Each experiment characterized 3 pots of each genotype (each pot contained 4 plants). After 2 weeks (exp. 1) or 3 weeks (Experiments 2 and 3) watering was ceased and the plants were treated with a mock or 1 μM mandipropamid solution made in water containing 0.02% Silwet L-77. These treatments were repeated every 4 (Experiment 1) or 3 days (Experiments 2 and 3). […] After 10 to 11 days of water deprivation the plants were re-watered to assess survival rates after extreme water deprivation. […] Inset in each image are the survival counts from Experiment 1 (upper numbers) and Experiments 2 and 3 (lower numbers). The survival rates have been separated because the experimental protocol for Experiment 1 differed from Experiments 2 and 3.
Plants were grown for ˜4 weeks until initial floral meristems became obvious, after which watering was ceased and the plants were treated with either a mock or 1 μM mandipropamid solution. […]

In experiment [2] the target is T1, PYR1 K59R V81I F108A S122G A160V (Arabidopsis thaliana, UniProt O49686, A160V/F108A/K59R/S122G/V81I).
T1 construct: expressed in transfected cells; host or cells: S. cerevisiae Y190 pACT-HAB1
Nature of the experiment: Y2H Combinatorial Mutagenesis II (HAB1, X-gal). Type of experiment: cell-based. From the text:
(§1) Both of the above optimization experiments led to the identification of the following mutations that, when introduced one at a time, enhance the mandipropamid sensitivity of PYR1^K59R,F108A,S122G: Y58H, V81C, V81I, V81T, V83L, L87A, F159L, F159M, F159V, A160V and V164I. Given that these each enhance sensitivity on their own, we tested if combinations of these mutations might generate more sensitive receptors. Mutagenic primers for each of the mutations were designed and used simultaneously with the QuickChange Lightning Multi Site-Directed Mutagenesis kit (Agilent, USA) with PYR1^K59R,F108A,S122G template DNA. Individual clones were sequenced to identify bona fide combination mutants, which were transformed into the Y190 pACT-HAB1 yeast strain and assayed for mandipropamid sensitivity. These efforts led to the identification of several improved receptors (“Combinatorial Mutagenesis Screen II”, Table 1), including PYR1^Y58H,K59R,V81I,F108A,S122G,F159L, a hextuple mutant that we have named PYR1^MANDI. Yeast reporter strains expressing this mutant are responsive to mandipropamid concentrations as low as 2 nM (Table 1). Thus, the 5-step mutagenesis protocol we followed led to the construction of a mandipropamid responsive receptor with nanomolar sensitivity.

For experiment [3], the target named is T2, PYR1 Y58H K59R V83L F108A S122G (Arabidopsis thaliana, UniProt O49686, F108A/K59R/S122G/V83L/Y58H).
T2 construct: expressed in transfected cells; host or cells: S. cerevisiae Y190 pACT-HAB1
The experiment can be described thus: Y2H Combinatorial Mutagenesis II (HAB1, X-gal). Type of experiment: cell-based.
Text: as §1

For experiment [4], the target named is T3, PYR1 Y58H K59R V81I F108A S122G (PYR1^MANDI) (Arabidopsis thaliana, UniProt O49686, F108A/F159L/K59R/S122G/V81I/Y58H).
T3 construct: expressed in transfected cells; host or cells: S. cerevisiae Y190 pACT-HAB1
Nature of the experiment: Y2H Combinatorial Mutagenesis II (HAB1, X-gal). Particulars: Y58H K59R V81I F108A S122G F150L. Type of experiment: cell-based.
Text: as §1

Experiment [5] addresses T4, PYR1 Y58H K59R V81I F108A S122G (Arabidopsis thaliana, UniProt O49686, F108A/K59R/S122G/V81I/Y58H).
T4 construct: expressed in transfected cells; host or cells: S. cerevisiae Y190 pACT-HAB1
Nature of the experiment: Y2H Combinatorial Mutagenesis II (HAB1, X-gal). Type of experiment: cell-based.
Text: as §1

In experiment [6] the target is T5, PYR1 Y58H K59R V81I F108A S122G V164I (Arabidopsis thaliana, UniProt O49686, F108A/K59R/S122G/V164I/V81I/Y58H).
T5 construct: expressed in transfected cells; host or cells: S. cerevisiae Y190 pACT-HAB1
Nature of the experiment: Y2H Combinatorial Mutagenesis II (HAB1, X-gal). Type of experiment: cell-based.
Text: as §1

Experiment [7] has as its target T6, PYR1 Y58H K59R V81I F108A S122G F150L (PYR1^MANDI) (Arabidopsis thaliana, UniProt O49686, F108A/F159L/K59R/S122G/V81I/Y58H).
T6 construct: expressed in transfected cells; host or cells: S. cerevisiae Y190 pACT-HAB1
Nature of the experiment: Y2H Combinatorial Mutagenesis II (HAB1, X-gal). Type of experiment: cell-based. The note with it: PYR1^MANDI, yeast two hybrid.
Text: as §1

For experiment [8], the target named is T7, GST-ABI2 with 6×-His-PYR1^MANDI (Arabidopsis thaliana, UniProt O49686, F108A/F159L/K59R/S122G/V81I/Y58H).
T7 construct: made in house; host or cells: E. coli BL21[DE3]pLysS (receptor)
The experiment can be described thus: PP2C enzyme inhibition assay (4-methylumbelliferyl-phosphate). Type of experiment: biochemical. The note with it: 100 nM 6×-His-PYR1^MANDI, 50 nM GST-PP2C; read-out: IC50, mandipropamid mediated inhibition of ABI2. The procedure:
We next characterized the effects of recombinant PYR1^MANDI on PP2C activity using the fluorogenic substrate 4-methylumbelliferyl-phosphate. Recombinant receptor and PP2C proteins were prepared as described above and used to examine PP2C inactivation in response to mandipropamid or ABA. Enzyme inhibition assays were conducted using the following assay conditions: 100 nM 6×-His-PYR1^MANDI, 50 nM GST-PP2C, 100 mM Tris-OAc (pH 7.9), 100 mM NaCl, 1 mM MnCl2, 1% β-mercaptoethanol. […] The three ABA-regulated clade A PP2Cs, GST-HAB1, GST-ABI1 and GST-ABI2 were each tested under the same enzyme conditions in separate reactions. The assays were conducted at a variety of mandipropamid or ABA concentrations so that IC50 values could be determined. […] Thus, the PYR1^MANDI receptor is highly sensitive to activation by mandipropamid and interacts with multiple clade A PP2Cs in response to mandipropamid. This high level of sensitivity is consistent with the yeast two hybrid results described above in which a detectable interaction between PYR1^MANDI and HAB1 could be observed at concentrations as low as 2 nM (see Table 1). We note that the yeast two hybrid reporter systems requires only a small percentage of PYR1^MANDI receptors to bind HAB1 for an interaction signal and is therefore a potentially more sensitive indicator than in vitro assays. […] Thus these in vitro assays confirm that PYR1^MANDI is selectively activated by mandipropamid.

T1 sequence (O49686 whole entry K59R/V81I/F108A/S122G/A160V): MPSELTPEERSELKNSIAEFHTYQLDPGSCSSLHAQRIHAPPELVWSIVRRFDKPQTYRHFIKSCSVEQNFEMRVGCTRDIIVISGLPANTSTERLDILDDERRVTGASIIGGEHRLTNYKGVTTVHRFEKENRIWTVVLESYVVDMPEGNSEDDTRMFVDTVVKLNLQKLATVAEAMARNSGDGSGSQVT
T1 sequence (Q9CAJ0 23-511 partner): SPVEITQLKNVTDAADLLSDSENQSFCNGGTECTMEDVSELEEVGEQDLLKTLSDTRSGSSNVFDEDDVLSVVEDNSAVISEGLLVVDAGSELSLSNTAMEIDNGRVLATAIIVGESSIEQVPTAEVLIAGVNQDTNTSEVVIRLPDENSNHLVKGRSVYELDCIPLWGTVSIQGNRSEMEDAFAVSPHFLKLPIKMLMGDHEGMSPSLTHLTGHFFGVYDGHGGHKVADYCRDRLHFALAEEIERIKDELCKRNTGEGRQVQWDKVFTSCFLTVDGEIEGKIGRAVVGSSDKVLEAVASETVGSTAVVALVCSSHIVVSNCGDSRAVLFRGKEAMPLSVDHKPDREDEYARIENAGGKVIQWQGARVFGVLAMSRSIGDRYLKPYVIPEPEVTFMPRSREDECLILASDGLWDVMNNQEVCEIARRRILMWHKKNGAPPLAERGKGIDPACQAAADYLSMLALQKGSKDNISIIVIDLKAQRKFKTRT
T2 sequence (O49686 whole entry Y58H/K59R/V83L/F108A/S122G): as the sequence (O49686 whole entry K59R/V81I/F108A/S122G/A160V) above, with Y58H, I81V, V83L, V160A counted along it
T2 sequence (Q9CAJ0 23-511 partner): as the sequence (Q9CAJ0 23-511 partner) above
T4 sequence (O49686 whole entry Y58H/K59R/V81I/F108A/S122G): as the sequence (O49686 whole entry K59R/V81I/F108A/S122G/A160V) above, with Y58H, V160A counted along it
T4 sequence (Q9CAJ0 23-511 partner): as the sequence (Q9CAJ0 23-511 partner) above
T6 sequence (O49686 whole entry Y58H/K59R/V81I/F108A/S122G/F159L): as the sequence (O49686 whole entry K59R/V81I/F108A/S122G/A160V) above, with Y58H, F159L, V160A counted along it
T6 sequence (Q9CAJ0 23-511 partner): as the sequence (Q9CAJ0 23-511 partner) above
T3 sequence (O49686 whole entry Y58H/K59R/V81I/F108A/S122G/F159L): as the sequence (O49686 whole entry K59R/V81I/F108A/S122G/A160V) above, with Y58H, F159L, V160A counted along it
T3 sequence (Q9CAJ0 23-511 partner): as the sequence (Q9CAJ0 23-511 partner) above
T7 sequence (O49686 whole entry Y58H/K59R/V81I/F108A/S122G/F159L): as the sequence (O49686 whole entry K59R/V81I/F108A/S122G/A160V) above, with Y58H, F159L, V160A counted along it
T7 sequence (O04719 whole entry partner): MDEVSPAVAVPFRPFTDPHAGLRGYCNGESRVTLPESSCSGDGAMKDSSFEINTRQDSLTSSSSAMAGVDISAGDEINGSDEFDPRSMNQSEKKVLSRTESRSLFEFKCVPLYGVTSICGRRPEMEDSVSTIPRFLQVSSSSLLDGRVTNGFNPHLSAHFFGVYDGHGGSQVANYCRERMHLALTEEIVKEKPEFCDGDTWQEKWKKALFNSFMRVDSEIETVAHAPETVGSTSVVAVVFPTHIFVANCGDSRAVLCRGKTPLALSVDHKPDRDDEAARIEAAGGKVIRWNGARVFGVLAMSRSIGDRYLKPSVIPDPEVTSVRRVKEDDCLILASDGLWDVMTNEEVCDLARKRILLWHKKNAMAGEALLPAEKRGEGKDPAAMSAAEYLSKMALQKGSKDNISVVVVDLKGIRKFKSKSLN
T5 sequence (O49686 whole entry Y58H/K59R/V81I/F108A/S122G/V164I): as the sequence (O49686 whole entry K59R/V81I/F108A/S122G/A160V) above, with Y58H, V160A, V164I counted along it
T5 sequence (Q9CAJ0 23-511 partner): as the sequence (Q9CAJ0 23-511 partner) above

On to `C#CCOc1ccc(CCNC(=O)C(OCC#C)c2ccc(Cl)cc2)cc1OC` (centres unmarked) [Mandipropamid, mandipropamid], for which the “survival rates after water deprivation and re-watering, relative to wild type and PYR1-OX controls” value in experiment [1] is “greatly improved”. The Threshold came out at 0.05 µM in experiment [2]; 0.01 µM in experiment [3]; 0.002 µM in experiment [4]; 0.05 µM in experiment [5]; 0.01 µM in experiment [6]. Further, in experiment [7], the “lowest mandipropamid concentration with detectable PYR1^MANDI-HAB1 interaction in yeast reporter strain” value is 2 nM. For the same molecule, in experiment [8], the IC50 amounted to 75.5 nM.

In general, IC50 refers to the concentration that inhibits the measured activity by half.
